Source: US20250084084A1, “Crystalline form of (2R)-2-(5-fluoro-2-methoxypyridin-4-yl)-1-[(2S)-7-methyl-6-(pyrimidin-2-yl)-3,4-dihydro-1H-spiro[1,8-naphthyridine-2,3-pyrrolidin]-1-yl]propan-1-one” (Pfizer Inc., priority 2020, published 2025)
Read-outs that look alike come from different tables or passages of the source.

What was measured:
[1] = target: human Melanocortin-4 receptor (MC4R) (Homo sapiens (Human), UniProt P32245); experiment: Functional in vitro MC4R antagonist potency assay (cAMP HTRF in CHO cells, αMSH EC80 stimulation); type: cell-based
Protocol: The functional in vitro antagonist potency for test compounds was determined by monitoring intracellular cyclic adenosine monophosphate (cAMP) levels in Chinese hamster ovary (CHO—) cells stably expressing the human Melanocortin-4 receptor (MC4R). […] The activated Ga subunit can couple to downstream effectors to regulate the levels of second messengers or cAMP within the cell. Thereby, determination of intracellular cAMP levels allows for pharmacological characterization. Intracellular cAMP levels are quantitated using a homogenous assay utilizing the Homogeneous Time-Resolved Fluorescence (HTRF) technology from CisBio. The method is a competitive immunoassay between native cAMP produced by cells and the cAMP labelled with the acceptor dye, d2. The two entities then compete for binding to a monoclonal anti-cAMP antibody labeled with cryptate. The specific signal is inversely proportional to the concentration of cAMP in the cells.
Test compounds were solubilized to 30 mM in 100% dimethyl sulfoxide (DMSO) and stored. […]
(95% O2: 5% CO2) overnight, with micro-clime lids (Labcyte, Cat No. LLS-0310). […] Intracellular cAMP levels were quantified as per Cisbio's protocol (5 uL of D2 and then 5 uL Cryptate, incubated for 1-2 hours at room temperature).
Data expressed as nM cAMP were then normalized to control wells using Activity Base (IDBS). […]

[2] = target: α-melanocyte-stimulating hormone receptor (hMC4R) (Homo sapiens (Human), UniProt P32245); experiment: In vitro binding affinity assay using hMC4R (radioligand competition binding, [125I]-(Nle4, D-Phe7)-α-MSH); details: geometric mean
Summary of the method: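 Membranes from CHO cells stably expressing hMC4R (2 μg/well) incubated 2 h RT with [125I]-NDP-α-MSH and compound (300 nM-0.01 nM, 1% DMSO); 2 μM α-MSH defined nonspecific binding. Filtration and scintillation counting; Ki from IC50 via Cheng-Prusoff.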

[3] = read-out: Ki (nM) geometric mean

Sequence of α-melanocyte-stimulating hormone receptor (hMC4R) (P32245 whole entry): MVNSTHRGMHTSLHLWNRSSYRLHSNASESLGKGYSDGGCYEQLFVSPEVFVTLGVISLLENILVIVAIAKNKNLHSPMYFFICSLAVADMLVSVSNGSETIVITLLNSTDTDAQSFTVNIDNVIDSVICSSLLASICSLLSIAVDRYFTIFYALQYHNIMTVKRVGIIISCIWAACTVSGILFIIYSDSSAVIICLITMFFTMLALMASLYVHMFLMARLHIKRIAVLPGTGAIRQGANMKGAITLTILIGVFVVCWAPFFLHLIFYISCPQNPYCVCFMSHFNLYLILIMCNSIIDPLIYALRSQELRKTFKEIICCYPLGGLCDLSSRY
Sequence of human Melanocortin-4 receptor (MC4R) (P32245 whole entry): as above

Structure (SMILES) | Ki ([2]; read-out: Ki (nM) geometric) | Ki [2, 3] | other results
COc1cc([C@@H](C)C(=O)N2CC[C@@]3(CCc4cc(-c5cnccn5)c(C)nc4N3)C2)c(F)cn1 [Example 142, (2R)-2-(5-fluoro-2-methoxypyridin-4-yl)-1-[(2S)-7-methyl-6-(pyrazin-2-yl)-3,4-dihydro-1H-spiro[1,8-naphthyridine-2,3′-pyrrolidin]-1′-yl]propan-1-one] | 1.8 nM |  | Kb ([1]; read-out: Kb (nM) Antagonist geometric): 3.6 nM
COc1cc([C@@H](C)C(=O)N2CC[C@@]3(CCc4cc(Cl)c(C)nc4N3)C2)c(F)cn1 (single isomer, unassigned) [Example 103] |  |  | Kb ([1]; cAMP HTRF in CHO cells expressing human MC4R, 200 nM αMSH (EC80), Kb by Leff-Dougall equation, geometric mean): > 92 nM
COc1cc([C@@H](C)C(=O)N2CC[C@@]3(CCc4cc(-c5nc(N6CCOCC6)n(C)n5)c(C)nc4N3)C2)c(F)cn1 [Example 187, (2R)-2-(5-fluoro-2-methoxypyridin-4-yl)-1-{(2S)-7-methyl-6-[1-methyl-5-(morpholin-4-yl)-1H-1,2,4-triazol-3-yl]-3,4-dihydro-1H-spiro[1,8-naphthyridine-2,3′-pyrrolidin]-1′-yl}propan-1-one] | 5.5 nM |  | 
COc1cc([C@@H](C)C(=O)N2CC[C@@]3(CCc4cc(-c5ncccn5)c(C)nc4N3)C2)c(C)cn1 (single isomer, unassigned) [Example 136] | 1.4 nM |  | 
COc1cc([C@@H](C)C(=O)N2CC[C@@]3(CCc4cc(-c5nc(C(F)F)n(C)n5)c(C)nc4N3)C2)c(F)cn1 [Example 122, (2R)-1-{(2S)-6-[5-(difluoromethyl)-1-methyl-1H-1,2,4-triazol-3-yl]-7-methyl-3,4-dihydro-1H-spiro[1,8-naphthyridine-2,3′-pyrrolidin]-1′-yl}-2-(5-fluoro-2-methoxypyridin-4-yl)propan-1-one] | 0.49 nM |  | 
COc1cc([C@@H](C)C(=O)N2CC[C@@]3(CCc4cc(-c5cccc(OC(F)F)n5)c(C)nc4N3)C2)c(F)cn1 [Example 198, (2R)-1-{(2S)-6-[6-(difluoromethoxy)pyridin-2-yl]-7-methyl-3,4-dihydro-1H-spiro[1,8-naphthyridine-2,3′-pyrrolidin]-1′-yl}-2-(5-fluoro-2-methoxypyridin-4-yl)propan-1-one] | 2.5 nM |  | 
COc1cc([C@@H](C)C(=O)N2CC[C@@]3(CCc4cc(-c5ncccn5)c(C)nc4N3)C2)c(C(F)(F)F)cn1 (single isomer, unassigned) [Example 40] |  | 150 nM | 
COc1cc([C@@H](C)C(=O)N2CC[C@@]3(CCc4ccc(C)nc4N3)C2)c(F)cn1 (single isomer, unassigned) [Example 98] |  | 2.8 nM | 
COc1cc([C@@H](C)C(=O)N2CC[C@@]3(CCc4cc(-c5ccc(C(F)(F)F)cn5)c(C)nc4N3)C2)c(F)cn1 [Example 155, (2R)-2-(5-fluoro-2-methoxypyridin-4-yl)-1-{(2S)-7-methyl-6-[5-(trifluoromethyl)pyridin-2-yl]-3,4-dihydro-1H-spiro[1,8-naphthyridine-2,3′-pyrrolidin]-1′-yl}propan-1-one] | 27 nM |  | 
Cc1ccc2c(n1)N[C@@]1(CC2)CCN(C(=O)Cc2ccc(F)cc2)C1 (single isomer, unassigned) [Example 87, 2-(4-fluorophenyl)-1-(7-methyl-3,4-dihydro-1H-spiro[1,8-naphthyridine-2,3′-pyrrolidin]-1′-yl)ethan-1-one] |  | 48 nM | 
COc1ccc([C@@H](C)C(=O)N2CC[C@@]3(CCc4cc(-c5ncccn5)c(C)nc4N3)C2)cc1F (single isomer, unassigned) [Example 42] |  | 1.9 nM | 
COc1cc([C@@H](C)C(=O)N2CC[C@@]3(CCc4cc(-c5nc6n(n5)CCC6(F)F)c(C)nc4N3)C2)c(F)cn1 [Example 147, (2R)-1-[(2S)-6-(7,7-difluoro-6,7-dihydro-5H-pyrrolo[12-b][1,2,4]triazol-2-yl)-7-methyl-3,4-dihydro-1H-spiro[1,8-naphthyridine-2,3′-pyrrolidin]-1′-yl]-2-(5-fluoro-2-methoxypyridin-4-yl)propan-1-one] | 0.62 nM |  | 
COc1cc([C@@H](C)C(=O)N2CC[C@@]3(CCc4cc(-c5nc(C(F)(F)F)n(C)n5)c(C)nc4N3)C2)c(F)cn1 (single isomer, unassigned) [Example 92] |  | 0.45 nM | 
Cc1nc2c(cc1-c1nnn(C)n1)CC[C@@]1(CCN(C(=O)Cc3ccc(C(F)(F)F)cc3)C1)N2 (single isomer, unassigned) [Example 65, 1-[7-methyl-6-(2-methyl-2H-tetrazol-5-yl)-3,4-dihydro-1H-spiro[1,8-naphthyridine-2,3′-pyrrolidin]-1′-yl]-2-[4-(trifluoromethyl)phenyl]ethan-1-one] |  | 1.7 nM | 
Cc1nc2c(cc1-c1nnn(C)n1)CC[C@@]1(CCN(C(=O)[C@H](C)c3ccc(OC(F)F)nc3)C1)N2 (single isomer, unassigned) [Example 107] | 57 nM |  | 
COc1cc(OC)cc([C@@H](C)C(=O)N2CCC3(CCc4cc(-c5cnn(C)c5)c(C)nc4N3)C2)c1 (single isomer, unassigned) [Example 90] |  | 0.044 nM | 
